The test system of assay [1] is G. lamblia trophozoites (WBC6). Nature of the assay: Growth inhibition of G. lamblia trophozoites (WBC6), resazurin viability read-out. As to conditions: for IC50: Giardia duodenalis, WBC6 trophozoites, 72 h, anaerobic, mean ± standard error (95% CI, logit-log), quadruplicates, read-out: IC50 (nM) G.l. The format is cell-based, Giardia lamblia. The protocol: (§1) G. lamblia trophozoites (WBC6) were seeded into 96-well-plates in 0.2 mL Keister-medium containing 10^3 trophozoites per well in the presence of the compounds dissolved in dimethyl sulfoxide (DMSO, final concentration 0.25%) or with DMSO as a solvent control and incubated for 72 h at 37 °C in an anaerobic chamber (80% N2, 10% H2, 10% CO2). Then, plates were centrifuged (2 min, 1000 rpm), medium was removed, and cells were washed once with PBS containing 1 g/L glucose. Then, PBS-glucose containing 10 mg/L resazurin was added, and plates were incubated for up to 5 h at 37 °C. Fluorescence reading (ex 530 nm/em 590 nm) was performed at various time points, and the linear increase of fluorescence was used as a marker for cell viability. IC50 values were calculated using the logit-log algorithm and are given as mean values with 95%-confidence intervals ([Müller et al., 2020]; [Müller and Hemphill, 2013]; [Müller and Müller, 2019]). The assays for growth inhibition of T. b. brucei, T. cruzi, L. infantum, P. falciparum and MRC-5 (human lung fibroblasts MRC-5SV40) were previously described ([Blaazer et al., 2014]). PDE activity was determined exactly as described ([de Heuvel et al., 2021]; [Kunz et al., 2005], [2017b]). All assays were carried out in triplicates and no more than 20% substrate was hydrolyzed in all reactions. Compounds were dissolved in DMSO and the final DMSO concentration was 1% in all reaction mixes. Control reactions with DMSO alone were always included. Data were analyzed using the GraphPad Prism software package (v7.0, GraphPad, San Diego).
Figure S67. Representative drug susceptibility curves of G. lamblia WBC6. Trophozoites were grown anaerobically in the presence of various concentrations of 17 (red), 29 (blue) and the reference compound metronidazole (MET, black). After 72 h, growth of cells was monitored by a cell viability assay based on the reduction of resazurin to a pink fluorescent product. Measured fluorescence units were normalized to the DMSO control. Data points and error bars represent mean and standard error of 4 replicates.
For orientation: The colour change of resazurin is a common sign of viable cells or microbes.

Assay [2] relates to MRC-5 (human lung fibroblasts MRC-5SV40). Nature of the assay: Cytotoxicity on MRC-5 cells. It is filed as cell-based. How it is done:
as §1, with “[…]-medium” for “Keister-medium”, “([[…],” for “([Müller et al., 2020]; [Müller and Hemphill, 2013]; [Müller and Müller,”

The test system of another assay is Leishmania infantum. Nature of the assay: Growth inhibition of L. infantum. The following applies: mean ± standard deviation, n ≥ 2. The format is cell-based. The protocol:
as §1

Another assay deals with Trypanosoma cruzi. Nature of the assay: Growth inhibition of T. cruzi. It is filed as cell-based. The following applies: mean ± standard deviation, n ≥ 2. How it is done:
as §1

A further assay relates to Plasmodium falciparum. Put plainly: Growth inhibition of P. falciparum. The format is cell-based. How it is done:
as §1, with “[…]-medium” for “Keister-medium”, “([[…],” for “([Müller et al., 2020]; [Müller and Hemphill, 2013]; [Müller and Müller,”

The subject of assay [3] is Trypanosoma brucei brucei. Nature of the assay: Growth inhibition of T. b. brucei. The format is cell-based. The following applies: mean ± standard deviation, n ≥ 2. How it is done: as §1
The mark [4] stands for this setting: MRC5, Table S1, mean ± standard deviation, n ≥ 2, read-out: IC50 (µM) MRC-5.
[5] abbreviates: MRC5, mean ± standard deviation, n ≥ 2, read-out: IC50 (nM) MRC-5.
The mark [6] stands for this setting: mean ± standard deviation, n ≥ 2, read-out: IC50 (µM) P.f.

The structures appear in SMILES notation. Where a name gives a salt, the structure may show the parent alone. Read-outs that look alike come from different tables or passages of the source.

Turning to `O=[N+]([O-])c1cnc2ccc(N3CCC(Cc4ccccc4)CC3)nn12` [Compound 28, 6-(4-Benzylpiperidin-1-yl)-3-nitroimidazo[1,2-b]pyridazine], the IC50 – broadly, the midpoint of a concentration-inhibition curve – in assay [1] was 0.5 ± 0.1 nM; in assay [2] (setting [4]) it was 8 ± 0.2 µM; in assay [2] (setting [5]), 7.96 µM; in the assay on Leishmania infantum, over 64 µM; with Trypanosoma cruzi it was 8.6 ± 0.2 µM; in the assay with Plasmodium falciparum (setting [6]) it was 23.4 ± 7.2 µM. Also, the IC50 in assay [3] came to 27.6 ± 4.2 µM.

As to `COc1ccc(C2=NN(C3CCN(c4ccc5ncc([N+](=O)[O-])n5n4)CC3)C(=O)[C@H]3CC=CC[C@@H]23)cc1OCc1cccnc1` (relative stereo) [Compound 15, cis-4-(4-Methoxy-3-(pyridin-3-ylmethoxy)phenyl)-2-(1-(3-nitroimidazo[1,2-b]pyridazin-6-yl)piperidin-4-yl)-4a,5,8,8a-tetrahydrophthalazin-1(2H)-one], the IC50 stood at 6.8 ± 1.5 nM in assay [1]; 14.9 ± 11.5 µM in assay [2] (setting [4]); 15 µM in assay [2] (setting [5]); 8.1 µM in the assay with Leishmania infantum; 2.1 µM with Trypanosoma cruzi; 2.1 ± 0.8 µM in the assay with Plasmodium falciparum (setting [6]). In assay [3], this compound displayed an IC50 of 2.2 µM.

Turning to `CCCCCCCCCCCCCCCCOP(=O)([O-])OCC[N+](C)(C)C` [Miltefosine, miltefosine, reference compound], half-maximal inhibition in the assay with Leishmania infantum (IC50) required 10.3 ± 1.3 µM.

Turning to `O=[N+]([O-])c1cnc2ccc(N3CCN(c4ccccc4)CC3)nn12` [Compound 27, 3-Nitro-6-(4-phenylpiperazin-1-yl)imidazo[1,2-b]pyridazine], the IC50 in assay [1] was 0.7 ± 0.1 nM; in assay [2] (setting [5]) it was over 64 µM; with Leishmania infantum, 35.3 ± 4 µM; in the assay with Trypanosoma cruzi it was over 64 µM; with Plasmodium falciparum (setting [6]), over 64 µM; in assay [3], over 64 µM.

`O=[N+]([O-])c1cnc2ccc(N3CCC(N4CCCC4)CC3)nn12` [Compound 25, 3-Nitro-6-(4-(pyrrolidin-1-yl)piperidin-1-yl)imidazo[1,2-b]pyridazine formate]: the IC50 in assay [1] was 5.8 ± 0.9 nM; in assay [2] (setting [5]), over 64 µM; in the assay with Leishmania infantum, over 64 µM; in the assay on Trypanosoma cruzi, 39.9 ± 3.7 µM; in the assay on Plasmodium falciparum (setting [6]), over 64 µM; in assay [3] it was over 64 µM.

Take `CN1CCN(c2ccc3ncc([N+](=O)[O-])n3n2)CC1` [Compound 24, 6-(4-Methylpiperazin-1-yl)-3-nitroimidazo[1,2-b]pyridazine formate]: the half-inhibitory concentration (IC50) in assay [1] was 144 ± 31 nM; in assay [2] (setting [5]), over 64 µM; with Leishmania infantum it was over 64 µM; in the assay on Trypanosoma cruzi, 33.5 ± 1.1 µM; in the assay with Plasmodium falciparum (setting [6]) it was over 64 µM; in assay [3], over 64 µM.

`Cc1ccc(C(=O)Nc2ccc(S(=O)(=O)O)c3cc(S(=O)(=O)O)cc(S(=O)(=O)O)c23)cc1NC(=O)c1cccc(NC(=O)Nc2cccc(C(=O)Nc3cc(C(=O)Nc4ccc(S(=O)(=O)O)c5cc(S(=O)(=O)O)cc(S(=O)(=O)O)c45)ccc3C)c2)c1` [Suramine, suramin, reference compound]: in assay [3], the 50% inhibitory concentration (IC50) came to 0.05 ± 0.02 µM.

Turning to `O=[N+]([O-])c1cnc2ccc(N3CCCC3)nn12` [Compound 22, 3-Nitro-6-(pyrrolidin-1-yl)imidazo[1,2-b]pyridazine], the 50% inhibitory concentration (IC50) in assay [1] was 2.3 ± 0.4 nM; in assay [2] (setting [5]) it was over 64 µM; in the assay on Leishmania infantum it was over 64 µM; in the assay on Trypanosoma cruzi it was over 64 µM; in the assay with Plasmodium falciparum (setting [6]), over 64 µM; in assay [3], over 64 µM.

Consider `c1cn2nc(N3CCCCC3)ccc2n1` [Compound 31, 6-(Piperidin-1-yl)imidazo[1,2-b]pyridazine], for which, in assay [1], the “anti-Giardia activity (in words)” value is “inactive”. In addition, the “difference in inhibiting growth of G. lamblia” value in assay [1] (31 (non-nitro analogue) versus 23) is > 2,500 folds. The 50% inhibitory concentration (IC50) in assay [1] was over 10000 nM; in assay [2] (setting [5]), over 64 µM; in the assay with Leishmania infantum it was over 64 µM; in the assay with Trypanosoma cruzi it was 38.4 ± 3.2 µM; in the assay with Plasmodium falciparum (setting [6]), over 64 µM; in assay [3] it was over 64 µM.

Regarding `Cc1ncc([N+](=O)[O-])n1CCO` [metronidazole, reference compound], the IC50 in assay [1] worked out at 800 ± 100 nM.

`O=[N+]([O-])c1cnc2ccc(N3CCC(c4ccccc4)CC3)nn12` [Compound 26, 3-Nitro-6-(4-phenylpiperidin-1-yl)imidazo[1,2-b]pyridazine]: the IC50 was 8.2 ± 1 nM in assay [1]; over 64 µM in assay [2] (setting [5]); over 64 µM with Leishmania infantum; over 64 µM in the assay on Trypanosoma cruzi; over 64 µM with Plasmodium falciparum (setting [6]); over 64 µM in assay [3].

Consider `COc1ccc(C2=NN(C3CCN(c4ccc5ncc([N+](=O)[O-])n5n4)CC3)C(=O)[C@H]3CC=CC[C@@H]23)cc1OCc1cccc([N+](=O)[O-])c1` (relative stereo) [Compound 13, cis-4-(4-Methoxy-3-((3-nitrobenzyl)oxy)phenyl)-2-(1-(3-nitroimidazo[1,2-b]pyridazin-6-yl)piperidin-4-yl)-4a,5,8,8a-tetrahydrophthalazin-1(2H)-one], for which the IC50 in assay [1] is 1.2 ± 0.4 nM; in assay [2] (setting [5]), over 64 µM; in the assay with Leishmania infantum it was 32.5 µM; with Trypanosoma cruzi, over 64 µM; in the assay on Plasmodium falciparum (setting [6]), 1.6 ± 0.7 µM; in assay [3], over 64 µM.

As for `CCN(CC)CCCC(C)Nc1ccnc2cc(Cl)ccc12` (stereo not shown) [Chloroquine, chloroquine, reference compound], the IC50 in the assay with Plasmodium falciparum (read-out: IC50 (µM) P.f.) came to 0.1 ± 0.03 µM.

With `O=C(Cn1ccnc1[N+](=O)[O-])NCc1ccccc1` [benznidazole, reference compound], half-maximal inhibition in the assay on Trypanosoma cruzi (IC50) was put at 2.5 ± 0.4 µM.

For the compound `O=C(c1ccccc1)C1CCN(c2ccc3ncc([N+](=O)[O-])n3n2)CC1` [Compound 29, (1-(3-Nitroimidazo[1,2-b]pyridazin-6-yl)piperidin-4-yl)(phenyl)methanone], the IC50 is 1.1 ± 0.2 nM in assay [1]; over 64 µM in assay [2] (setting [5]); 11.7 ± 1.4 µM with Leishmania infantum; 18.9 ± 13.9 µM in the assay with Trypanosoma cruzi; over 64 µM in the assay with Plasmodium falciparum (setting [6]); 34.4 ± 2.4 µM in assay [3].

In the case of `COc1ccc(C2=NN(C3CCN(c4ccc5ncc([N+](=O)[O-])n5n4)CC3)C(=O)[C@H]3CC=CC[C@@H]23)cc1OCc1ccccn1` (relative stereo) [Compound 17, cis-4-(4-Methoxy-3-(pyridin-2-ylmethoxy)phenyl)-2-(1-(3-nitroimidazo[1,2-b]pyridazin-6-yl)piperidin-4-yl)-4a,5,8,8a-tetrahydrophthalazin-1(2H)-one], the IC50 is 0.5 ± 0.1 nM in assay [1]; over 64 µM in assay [2] (setting [5]); 11.8 ± 7.5 µM with Leishmania infantum; 2.1 ± 0.1 µM in the assay with Trypanosoma cruzi; 2.3 ± 1.4 µM with Plasmodium falciparum (setting [6]); 4.92 ± 1.6 µM in assay [3]. The “fold higher anti-Giardia activity than metronidazole” value in assay [1] (versus metronidazole IC50 = 0.8 μM) is listed as > 1,000 fold.

`COc1ccc(C2=NN(C3CCN(c4ccc5ncc([N+](=O)[O-])n5n4)CC3)C(=O)[C@H]3CC=CC[C@@H]23)cc1OC1CCCC1` (relative stereo) [Compound 12, cis-4-(3-(Cyclopentyloxy)-4-methoxyphenyl)-2-(1-(3-nitroimidazo[1,2-b]pyridazin-6-yl)piperidin-4-yl)-4a,5,8,8a-tetrahydrophthalazin-1(2H)-one]: the IC50 is 9.3 ± 0.6 nM in assay [1]; over 64 µM in assay [2] (setting [5]); 25.9 ± 24.4 µM in the assay with Leishmania infantum; 2.2 µM in the assay on Trypanosoma cruzi; 3 ± 1.9 µM with Plasmodium falciparum (setting [6]); 2.1 µM in assay [3].

(Values after PMC9213561, “3-nitroimidazo[1,2-b]pyridazine as a novel scaffold for antiparasitics with sub-nanomolar anti-Giardia lamblia activity” (International Journal for Parasitology: Drugs and Drug …, 2022).)
